Test results as given in patent US7932262B2 (Novartis AG, priority 2006, dated 2011).
Where two headings read alike, the source gives them in different places.

How the values were obtained:
PDK1 kinase = target: T1, PDK1 kinase (Homo sapiens, UniProt O15530); assay: PDK1 Kinase Alpha Screen Assay; type: biochemical; conditions: read-out: PDK1 IC50
T1 sequence (O15530 1-556): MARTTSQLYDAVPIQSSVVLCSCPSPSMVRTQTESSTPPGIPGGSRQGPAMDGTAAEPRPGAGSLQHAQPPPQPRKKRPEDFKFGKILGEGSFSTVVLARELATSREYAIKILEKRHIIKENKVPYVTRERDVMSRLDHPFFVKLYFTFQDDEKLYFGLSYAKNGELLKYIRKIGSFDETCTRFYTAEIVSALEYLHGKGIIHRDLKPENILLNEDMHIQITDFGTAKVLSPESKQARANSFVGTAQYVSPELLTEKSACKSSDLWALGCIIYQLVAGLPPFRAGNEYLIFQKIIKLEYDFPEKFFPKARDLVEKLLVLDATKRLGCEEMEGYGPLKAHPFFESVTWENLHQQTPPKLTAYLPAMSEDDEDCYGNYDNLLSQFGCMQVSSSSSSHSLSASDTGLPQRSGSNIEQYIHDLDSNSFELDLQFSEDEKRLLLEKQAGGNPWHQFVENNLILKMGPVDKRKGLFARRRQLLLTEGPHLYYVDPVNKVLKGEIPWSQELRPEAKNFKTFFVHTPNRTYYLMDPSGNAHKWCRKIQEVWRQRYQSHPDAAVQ
Method in brief: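 Detection used AlphaScreen: streptavidin donor and protein A acceptor beads (25 μg/ml each) bridged by a phospho-(Ser/Thr) PKA substrate antibody binding phosphorylated peptide. Reaction: biotin-PDK1-4 peptide (50 nM), ATP (10 uM), PDK1 in pH 7.5 Tris/MgCl2/DTT buffer, 3-18 hours, EDTA-stopped.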

A2780 cells = assay: Cell Proliferation Assay (Cell Titer Glo), A2780; type: cell-based; conditions: Homo sapiens, read-out: CPEC50 A2780
Method in brief: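 Following a 3-day compound exposure (37° C., 5% CO2) of A2780 or PC3MM cells plated at 1000 per well, viability was measured by Cell Titer Glo luminescence in fresh medium, read 10 min after reagent addition.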

[1] = cell proliferation, A2780 cells
[2] = Cell Proliferation Assay, A2780
[3] = 72 h, A2780 cells, 3 days incubation

Row | SMILES | IC50 (PDK1 kinase; PDK1 Kinase Alpha Screen Assay) [µM] | EC50 (A2780 cells; [2]) [µM] | IC50 (PDK1 kinase) [µM] | EC50 (A2780 cells; [3]) [µM] | further results
1 | NS(=O)(=O)c1ccc(Nc2ncc3ccc(-c4ccnc(N5CCCC5)c4)cc3n2)cc1 [Compound 851, 4-(7-(2-(pyrrolidin-1-yl)pyridin-4-yl)quinazolin-2-ylamino)benzenesulfonamide] | 5 to 10 | – | – | – | EC50 (A2780 cells; [1]): < 5 µM
2 | NCCOc1cccc2cnc(Nc3ccccc3)nc12 [Compound 507, 8-(2-aminoethoxy)-N-phenylquinazolin-2-amine] | < 5 | 5 to 10 | – | – | –
3 | COc1cc(-c2cccc3cnc(Nc4ccc(S(N)(=O)=O)cc4)nc23)c(Cl)cn1 [Compound 117, 4-[8-(5-Chloro-2-methoxy-pyridin-4-yl)-quinazolin-2-ylamino]-benzenesulfonamide] | – | – | < 5 | < 5 | –
4 | COc1cccc(Oc2cccc3cnc(Nc4ccc(S(N)(=O)=O)cc4)nc23)c1 [Compound 406, 4-(8-(3-methoxyphenoxy)quinazolin-2-ylamino)benzenesulfonamide] | < 5 | < 5 | – | – | –
5 | Cn1cc(-c2ccc3cnc(Nc4ccc(S(N)(=O)=O)cc4)nc3c2-c2cnn(C)c2)cn1 [Compound 898, 4-(7,8-bis(1-methyl-1H-pyrazol-4-yl)quinazolin-2-ylamino)benzenesulfonamide] | < 5 | – | – | – | EC50 (A2780 cells; [1]): < 5 µM
6 | NS(=O)(=O)c1ccc(Nc2ncc3cccc(C(=O)N4CCOCC4)c3n2)cc1 [Compound 120, 4-[8-(Morpholine-4-carbonyl)-quinazolin-2-ylamino]-benzenesulfonamide] | – | – | 5 to 10 | 5 to 10 | –
7 | CC(=O)Nc1ccc2cnc(Nc3ccc(S(N)(=O)=O)cc3)nc2c1 [Compound 316, N-(2-(4-sulfamoylphenylamino)quinazolin-7-yl)acetamide] | < 5 | < 5 | – | – | –
8 | CC(=O)Nc1cccc(-c2cccc3cnc(Nc4ccc(S(N)(=O)=O)cc4)nc23)c1 [Compound 93, N-{3-[2-(4-Sulfamoyl-phenylamino)-quinazolin-8-yl]-phenyl}-acetamide] | – | – | < 5 | < 5 | –
9 | NS(=O)(=O)c1ccc(Nc2ncc3cccc(CNC4CCOCC4)c3n2)cc1 [Compound 920] | – | – | < 5 | – | EC50 (A2780 cells; A2780 cells): < 5 µM
10 | NS(=O)(=O)c1ccc(Nc2ncc3ccc(-c4cccnc4)c(-c4cccnc4)c3n2)cc1 [Compound 899, 4-(7,8-di(pyridin-3-yl)quinazolin-2-ylamino)benzenesulfonamide] | < 5 | – | – | – | EC50 (A2780 cells; [1]): < 5 µM
11 | NS(=O)(=O)c1ccc(Nc2ncc3ccc(-c4ccc(C(=O)N5CCOCC5)cc4)cc3n2)cc1 [Compound 139, 4-{7-[4-(Morpholine-4-carbonyl)-phenyl]-quinazolin-2-ylamino}-benzenesulfonamide] | – | – | < 5 | 5 to 10 | –
12 | NS(=O)(=O)c1ccc(Nc2ncc3cccc(CN4CCOCC4)c3n2)cc1 [Compound 872, 4-(8-(morpholinomethyl)quinazolin-2-ylamino)benzenesulfonamide] | < 5 | – | – | – | EC50 (A2780 cells; [1]): < 5 µM
13 | NC(=O)C1CCN(Cc2cccc3cnc(Nc4ccc(S(N)(=O)=O)cc4)nc23)CC1 [Compound 919, 1-((2-(4-sulfamoylphenylamino)quinazolin-8-yl)methyl)piperidine-4-carboxamide] | – | – | < 5 | – | EC50 (A2780 cells; A2780 cells): 5 to 10 µM
14 | CNS(=O)(=O)c1ccc(Nc2ncc3cccc(OC(C)C)c3n2)cc1 [Compound 517, 4-(8-isopropoxyquinazolin-2-ylamino)-N-methylbenzenesulfonamide] | < 5 | < 5 | – | – | –
15 | NS(=O)(=O)c1ccc(Nc2ncc3cccc(CN4CCc5ccccc5C4)c3n2)cc1 [Compound 923, 4-(8-((3,4-dihydroisoquinolin-2(1H)-yl)methyl)quinazolin-2-ylamino)benzenesulfonamide] | – | – | < 5 | – | EC50 (A2780 cells; A2780 cells): < 5 µM
16 | CC(=O)NCCNc1cc(-c2cccc3cnc(Nc4ccc(S(N)(=O)=O)cc4)nc23)ccn1 [Compound 101, N-(2-{4-[2-(4-Sulfamoyl-phenylamino)-quinazolin-8-yl]-pyridin-2-ylamino}-ethyl)-acetamide] | – | – | < 5 | < 5 | –
17 | CC(C)Oc1cccc2cnc(Nc3cccc(S(C)(=O)=O)c3)nc12 [Compound 555, 8-isopropoxy-N-(3-(methylsulfonyl)phenyl)quinazolin-2-amine] | < 5 | < 5 | – | – | –

Row | SMILES | IC50 (PDK1 kinase; PDK1 Kinase Alpha Screen Assay) [µM] | EC50 (A2780 cells; [2]) [µM] | IC50 (PDK1 kinase) [µM] | EC50 (A2780 cells; [3]) [µM] | further results
18 | NS(=O)(=O)c1ccc(Nc2ncc3cccc(OCc4ccc5nnsc5c4)c3n2)cc1 [Compound 386, 4-(8-(benzo[d][1,2,3]thiadiazol-6-ylmethoxy)quinazolin-2-ylamino)benzenesulfonamide] | < 5 | < 5 | – | – | –
19 | COc1cccc(Oc2ccc3cnc(Nc4ccc(S(N)(=O)=O)cc4)nc3c2)c1 [Compound 415, 4-(7-(3-methoxyphenoxy)quinazolin-2-ylamino)benzenesulfonamide] | < 5 | < 5 | – | – | –
20 | NC(=O)c1ccc(-c2ccc3cnc(Nc4ccc(S(N)(=O)=O)cc4)nc3c2)cc1F [Compound 112, 2-Fluoro-4-[2-(4-sulfamoyl-phenylamino)-quinazolin-7-yl]-benzamide] | – | – | < 5 | 5 to 10 | –
21 | NS(=O)(=O)c1ccc(Nc2ncc3ccc(Br)c(OC4CCNCC4)c3n2)cc1 [Compound 17, 4-[7-Bromo-8-(piper-idin-4-yloxy)-quin-azolin-2-ylamino]-benzenesulfonamide] | – | – | < 5 | < 5 | –
22 | CN1CCN(c2cc(-c3cccc4cnc(Nc5ccc(S(N)(=O)=O)cc5)nc34)ccn2)CC1 [Compound 106, 4-{8-[2-(4-Methyl-piperazin-1-yl)-pyridin-4-yl]-quinazolin-2-ylamino}-benzenesulfonamide] | – | – | < 5 | < 5 | –
23 | CC(=O)Nc1ccc(Nc2ncc3cccc(OC(C)C)c3n2)cc1 [Compound 311, N-(4-(8-isopropoxyquinazolin-2-ylamino)phenyl)acetamide] | < 5 | 5 to 10 | – | – | –
24 | CN1CCCC(Oc2cccc3cnc(Nc4ccc(S(N)(=O)=O)cc4)nc23)C1 (centres unmarked) [Compound 39, 4-[8-(1-Methyl-piperidin-3-yloxy)-quinazolin-2-ylamino]-benzenesulfonamide] | – | – | < 5 | < 5 | –
25 | NS(=O)(=O)c1ccc(Nc2ncc3cccc(-c4ccnc(N5CCNC(=O)C5)c4)c3n2)cc1 [Compound 108, 4-{8-[2-(3-Oxo-piperazin-1-yl)-pyridin-4-yl]-quinazolin-2-ylamino}-benzenesulfonamide] | – | – | < 5 | < 5 | –
26 | COCCNS(=O)(=O)c1cccc(Nc2ncc3cccc(OC4CCNCC4)c3n2)c1 [Compound 9, N-(2-Methoxy-ethyl)-3-[8-(piperidin-4-yloxy)-quinazolin-2-ylamino]-benzenesulfonamide] | – | – | < 5 | < 5 | –
27 | NS(=O)(=O)c1ccc(Nc2ncc3cccc(-c4ccnc(NCCN5CCCC5)c4)c3n2)cc1 [Compound 102, 4-{8-[2-(2-Pyrrolidin-1-yl-ethylamino)-pyridin-4-yl]-quinazolin-2-ylamino}-benzenesulfonamide] | – | – | < 5 | < 5 | –
28 | NS(=O)(=O)c1ccc(Nc2ncc3cccc(CN4CCNC(=O)C4)c3n2)cc1 [Compound 896, 4-(8-((3-oxopiperazin-1-yl)methyl)quinazolin-2-ylamino)benzenesulfonamide] | < 5 | – | – | – | EC50 (A2780 cells; [1]): < 5 µM
29 | CC(C)Oc1cccc2cnc(Nc3ccc(S(C)(=O)=O)cc3)nc12 [Compound 554, 8-isopropoxy-N-(4-(methylsulfonyl)phenyl)quinazolin-2-amine] | < 5 | < 5 | – | – | –
30 | CN1CCN(c2cc(-c3ccc4cnc(Nc5ccc(S(N)(=O)=O)cc5)nc4c3)ccn2)CC1 [Compound 882, 4-(7-(2-(4-methylpiperazin-1-yl)pyridin-4-yl)quinazolin-2-ylamino)benzenesulfonamide] | < 5 | – | – | – | EC50 (A2780 cells; [1]): < 5 µM
31 | CN(C)CCOc1cccc2cnc(Nc3ccc(C(N)=O)cc3)nc12 [Compound 504, 4-(8-(2-(dimethylamino)ethoxy)quinazolin-2-ylamino)benzamide] | < 5 | < 5 | – | – | –
32 | NS(=O)(=O)c1ccc(Nc2ncc3cccc(C(=O)O)c3n2)cc1 [Compound 622, 2-(4-sulfamoylphenylamino)quinazoline-8-carboxylic acid] | 5 to 10 | 5 to 10 | – | – | –
33 | CC(C)NC(=O)c1cccc2cnc(Nc3ccc(S(N)(=O)=O)cc3)nc12 [Compound 624, N-isopropyl-2-(4-sulfamoylphenylamino)quinazoline-8-carboxamide] | < 5 | < 5 | – | – | –
34 | N#Cc1ccc2cnc(Nc3ccc(S(N)(=O)=O)cc3)nc2c1OC1CCNCC1 [Compound 29, 4-[7-Cyano-8-(piperidin-4-yloxy)-quinazolin-2-ylamino]-benzenesulfonamide] | – | – | < 5 | < 5 | –
